Legend:
Test in all cases: relative viability (nuclei count vs DMSO), 5 days (fraction); higher = more cells survive
NCI-H1563 = tested on: NCI-H1563
Procedure, shortened: (§1)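 Cells from lung cancer lines were seeded into 1536-well plates and, one day later, dosed by pin tool. Treatments were either a single drug or a fixed dose of an anchor drug with five library-drug doses (not always all listed) in √10 steps. After 5 days, nuclei were stained in a one-step fixation (final 0.05% Triton X-100, 1% formaldehyde, 1 ug/ml Hoechst) and counted on 4× images, and relative viability is the treated-to-vehicle nuclei ratio, as the median of duplicate plates.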

NCI-H650 = tested on: NCI-H650
Procedure, shortened: as §1

NCI-H3122 = tested on: NCI-H3122
Procedure, shortened: as §1

NCI-H2126 = tested on: NCI-H2126
Procedure, shortened: as §1

NCI-H1755 = tested on: NCI-H1755
Procedure, shortened: as §1

LU99A = tested on: LU99A
Procedure, shortened: as §1

NCI-H1437 = tested on: NCI-H1437
Procedure, shortened: as §1

BEN = tested on: BEN
Procedure, shortened: as §1

HCC-44 = tested on: HCC-44
Procedure, shortened: as §1

HCC-15 = tested on: HCC-15
Procedure, shortened: as §1

NCI-H727 = tested on: NCI-H727
Procedure, shortened: as §1

CCNC(=O)c1noc(-c2cc(C(C)C)c(O)cc2O)c1-c1ccc(CN2CCOCC2)cc1 [Luminespib] + CS(=O)(=O)CCNCc1ccc(-c2ccc3ncnc(Nc4ccc(OCc5cccc(F)c5)c(Cl)c4)c3c2)o1 [Lapatinib] (partner 2 µM)
relative viability (NCI-H1563; first compound 0.002 µM): 0.963 | relative viability (NCI-H1563; first compound 0.006325 µM): 0.818 | relative viability (NCI-H1563; first compound 0.02 µM): 0.616 | relative viability (NCI-H1563; first compound 0.06325 µM): 0.474 | relative viability (NCI-H1563; first compound 0.2 µM): 0.528 | relative viability (NCI-H650; first compound 0.002 µM): 0.888 | relative viability (NCI-H650; first compound 0.006325 µM): 0.838 | relative viability (NCI-H650; first compound 0.02 µM): 0.507 | relative viability (NCI-H650; first compound 0.06325 µM): 0.0944 | relative viability (NCI-H650; first compound 0.2 µM): 0.149 | relative viability (NCI-H3122; first compound 0.002 µM): 1.09 | relative viability (NCI-H3122; first compound 0.006325 µM): 0.951 | relative viability (NCI-H3122; first compound 0.02 µM): 1.02 | relative viability (NCI-H3122; first compound 0.06325 µM): 0.24 | relative viability (NCI-H3122; first compound 0.2 µM): 0.168 | relative viability (NCI-H2126; first compound 0.002 µM): 0.798 | relative viability (NCI-H2126; first compound 0.006325 µM): 0.776 | relative viability (NCI-H2126; first compound 0.02 µM): 0.582 | relative viability (NCI-H2126; first compound 0.06325 µM): 0.647 | relative viability (NCI-H2126; first compound 0.2 µM): 0.526 | relative viability (NCI-H1755; first compound 0.002 µM): 1.09 | relative viability (NCI-H1755; first compound 0.006325 µM): 0.97 | relative viability (NCI-H1755; first compound 0.02 µM): 1.07 | relative viability (NCI-H1755; first compound 0.06325 µM): 0.502 | relative viability (NCI-H1755; first compound 0.2 µM): 0.176 | relative viability (LU99A; first compound 0.002 µM): 1.11 | relative viability (LU99A; first compound 0.006325 µM): 0.939 | relative viability (LU99A; first compound 0.02 µM): 0.518 | relative viability (LU99A; first compound 0.06325 µM): 0.127 | relative viability (LU99A; first compound 0.2 µM): 0.11 | relative viability (NCI-H1437; first compound 0.002 µM): 0.819 | relative viability (NCI-H1437; first compound 0.006325 µM): 0.748 | relative viability (NCI-H1437; first compound 0.02 µM): 0.703 | relative viability (NCI-H1437; first compound 0.06325 µM): 0.243 | relative viability (NCI-H1437; first compound 0.2 µM): 0.102 | relative viability (BEN; first compound 0.002 µM): 0.717 | relative viability (BEN; first compound 0.006325 µM): 0.536 | relative viability (BEN; first compound 0.02 µM): 0.363 | relative viability (BEN; first compound 0.06325 µM): 0.211 | relative viability (BEN; first compound 0.2 µM): 0.237 | relative viability (HCC-44; first compound 0.002 µM): 0.975 | relative viability (HCC-44; first compound 0.006325 µM): 1.08 | relative viability (HCC-44; first compound 0.02 µM): 1.18 | relative viability (HCC-44; first compound 0.06325 µM): 0.161 | relative viability (HCC-44; first compound 0.2 µM): 0.159 | relative viability (HCC-15; first compound 0.002 µM): 0.812 | relative viability (HCC-15; first compound 0.006325 µM): 0.783 | relative viability (HCC-15; first compound 0.02 µM): 0.883 | relative viability (HCC-15; first compound 0.06325 µM): 0.308 | relative viability (HCC-15; first compound 0.2 µM): 0.136 | relative viability (NCI-H727; first compound 0.002 µM): 0.82 | relative viability (NCI-H727; first compound 0.006325 µM): 0.768

From the supplement of paper PMC10307832
